Results: patent US9504669B2, “Spliceostatin analogs and methods for their preparation” (PFIZER INC., priority 2012, dated 2016)

Experiments:
Assay type in all cases: cell-based
Conditions in all cases: free compounds (natural products and synthetic analogs), cell viability 96 hours after treatment
[1] = system: N87 (gastric cancer) cells; test: In vitro cell assay (MTS cell viability), N87
Procedure: (§1) Target expressing (BT474 (breast cancer), N87 (gastric cancer), HCC1954 (breast cancer), MDA-MB-361-DYT2 (breast cancer)) or non-expressing (MDA-MB-468) cells were seeded in 96-well cell culture plates for 24 hours before treatment. Cells were treated with 3-fold serially diluted antibody-drug conjugates or free compounds (i.e., no antibody conjugated to the drug) in duplicate at 10 concentrations. Cell viability was determined by CellTiter 96® AQueous One Solution Cell Proliferation MTS Assay (Promega, Madison Wis.) 96 hours after treatment. Relative cell viability was determined as percentage of untreated control. IC50 values were calculated using a four parameter logistic model #203 with XLfit v4.2 (IDBS, Guildford, Surry, UK). The potency ranged upward from 0.0002 nm. Similar procedures and techniques were employed.

[2] = system: BT474 (breast cancer) cells; test: In vitro cell assay (MTS cell viability), BT474
Procedure: as §1

[3] = system: MDA-MB-361-DYT2 (breast cancer) cells; test: In vitro cell assay (MTS cell viability), MDA-MB-361-DYT2
Procedure: as §1

SMILES	IC50 [1]	IC50 [2]	IC50 [3]	IC50 ([1]; 96 h)	IC50 ([2]; Homo sapiens, BT-474)	IC50 ([3]; 96 h)
CC(=O)O[C@@H](C)/C=C\C(=O)N[C@@H]1C[C@H](C)[C@H](C/C=C(C)/C=C/[C@H]2O[C@H](CC(=O)N[C@H]3CC[C@H](N(C)C)CC3)C[C@@]3(CO3)[C@@H]2O)O[C@@H]1C (relative stereo) [#B86, (2S,3Z)-5-{[(2R,3R,5S,6S)-6-{(2E,4E)-5-[(3R,4R,5R,7S)-7-(2-{[trans-4-(dimethylamino)cyclohexyl]amino}-2-oxoethyl)-4-hydroxy-1,6-dioxaspiro[2.5]oct-5-yl]-3-methylpenta-2,4-dien-1-yl}-2,5-dimethyltetrahydro-2H-pyran-3-yl]amino}-5-oxopent-3-en-2-yl acetate]	14 nM	20.1 nM	73.3 nM			
CC(=O)O[C@@H](C)/C=C\C(=O)N[C@@H]1C[C@H](C)[C@H](C/C=C(C)/C=C/[C@@H]2C[C@]3(CO3)C[C@@H](CC(=O)N[C@H]3CC[C@H](N(C)C)CC3)O2)O[C@@H]1C (relative stereo) [#B87, (2S,3Z)-5-{[(2R,3R,5S,6S)-6-{(2E,4E)-5-[(3S,5S,7S)-7-(2-{[trans-4-(dimethylamino)cyclohexyl]amino}-2-oxoethyl)-1,6-dioxaspiro[2.5]oct-5-yl]-3-methylpenta-2,4-dien-1-yl}-2,5-dimethyltetrahydro-2H-pyran-3-yl]amino}-5-oxopent-3-en-2-yl acetate]	0.744 nM	1.21 nM	3.47 nM			
CC(=O)O[C@@H](C)/C=C\C(=O)N[C@@H]1C[C@H](C)[C@H](C/C=C(C)/C=C/[C@@H]2C[C@]3(CO3)C[C@@H](CC(=O)N[C@H]3CC[C@@H](N(C)C)CC3)O2)O[C@@H]1C (relative stereo) [#B90, (2S,3Z)-5-{[(2R,3R,5S,6S)-6-{(2E,4E)-5-[(3S,5S,7S)-7-(2-{[cis-4-(dimethylamino)cyclohexyl]amino}-2-oxoethyl)-1,6-dioxaspiro[2.5]oct-5-yl]-3-methylpenta-2,4-dien-1-yl}-2,5-dimethyltetrahydro-2H-pyran-3-yl]amino}-5-oxopent-3-en-2-yl acetate]	0.87 nM	1.26 nM	3.9 nM			
CC(=O)O[C@@H](C)/C=C\C(=O)N[C@@H]1C[C@H](C)[C@H](C/C=C(C)/C=C/[C@@H]2C[C@]3(CO3)C[C@@H](CC(=O)NN)O2)O[C@@H]1C [#B7, (2S,3Z)-5-{[(2R,3R,5S,6S)-6-{(2E,4E)-5-[(3S,5S,7S)-7-(2-hydrazinyl-2-oxoethyl)-1,6-dioxaspiro[2.5]oct-5-yl]-3-methylpenta-2,4-dien-1-yl}-2,5-dimethyltetrahydro-2H-pyran-3-yl]amino}-5-oxopent-3-en-2-yl acetate]				0.344 nM	1.12 nM	1.88 nM
CCCNC(=O)NC[C@@H]1C[C@@]2(CO2)[C@H](O)[C@@H](/C=C/C(C)=C/C[C@@H]2O[C@H](C)[C@H](NC(=O)/C=C\[C@H](C)OC(C)=O)C[C@@H]2C)O1 [#B242, (2S,3Z)-5-{[(2R,3R,5S,6S)-6-{(2E,4E)-5-[(3R,4R,5R,7S)-4-hydroxy-7-{[(propylcarbamoyl)amino]methyl}-1,6-dioxaspiro[2.5]oct-5-yl]-3-methylpenta-2,4-dien-1-yl}-2,5-dimethyltetrahydro-2H-pyran-3-yl]amino}-5-oxopent-3-en-2-yl acetate]				0.57 nM		3.76 nM
COC(=O)C[C@@H]1C[C@@]2(CO2)[C@H](OC)[C@@H](/C=C/C(C)=C/C[C@@H]2O[C@H](C)[C@H](NC(=O)/C=C\[C@H](C)O)C[C@@H]2C)O1 [#B264, methyl [(3R,5S,7R,8R)-7-{(1E,3E)-5-[(2S,3S,5R,6R)-5-{[(2Z,4S)-4-hydroxypent-2-enoyl]amino}-3,6-dimethyltetrahydro-2H-pyran-2-yl]-3-methylpenta-1,3-dien-1-yl}-8-methoxy-1,6-dioxaspiro[2.5]oct-5-yl]acetate]				> 100 nM		> 100 nM
COC(=O)C[C@@H]1C[C@@]2(CO2)[C@H](OC)[C@@H](/C=C/C(C)=C/C[C@@H]2O[C@H](C)[C@H](NC(=O)/C=C\[C@H](C)OC(C)=O)C[C@@H]2C)O1 [#B265, methyl [(3R,5S,7R,8R)-7-{(1E,3E)-5-[(2S,3S,5R,6R)-5-{[(2Z,4S)-4-(acetyloxy)pent-2-enoyl]amino}-3,6-dimethyltetrahydro-2H-pyran-2-yl]-3-methylpenta-1,3-dien-1-yl}-8-methoxy-1,6-dioxaspiro[2.5]oct-5-yl]acetate]				10.2 nM		8.67 nM
CC(=O)O[C@@H](C)/C=C\C(=O)N[C@@H]1C[C@H](C)[C@H](C/C=C(C)/C=C/[C@H]2O[C@H](CC(=O)NCc3ccc(C(N)=O)cc3)C[C@@]3(CO3)[C@@H]2O)O[C@@H]1C [#B266, (2S,3Z)-5-{[(2R,3R,5S,6S)-6-{(2E,4E)-5-[(3R,4R,5R,7S)-7-{2-[(4-carbamoylbenzyl)amino]-2-oxoethyl}-4-hydroxy-1,6-dioxaspiro[2.5]oct-5-yl]-3-methylpenta-2,4-dien-1-yl}-2,5-dimethyltetrahydro-2H-pyran-3-yl]amino}-5-oxopent-3-en-2-yl acetate]				28.4 nM		> 100 nM
CC(=O)O[C@@H](C)/C=C\C(=O)N[C@@H]1C[C@H](C)[C@H](C/C=C(C)/C=C/[C@H]2O[C@H](CC(=O)Nc3ccc(C(N)=O)cc3)C[C@@]3(CO3)[C@@H]2O)O[C@@H]1C [#B267, (2S,3Z)-5-{[(2R,3R,5S,6S)-6-{(2E,4E)-5-[(3R,4R,5R,7S)-7-{2-[(4-carbamoylphenyl)amino]-2-oxoethyl}-4-hydroxy-1,6-dioxaspiro[2.5]oct-5-yl]-3-methylpenta-2,4-dien-1-yl}-2,5-dimethyltetrahydro-2H-pyran-3-yl]amino}-5-oxopent-3-en-2-yl acetate]				3.44 nM		23.8 nM
CC(/C=C/[C@@H]1C[C@]2(CO2)C[C@@H](CC(N)=O)O1)=C\C[C@@H]1O[C@H](C)[C@H](NC(=O)/C=C/C(C)N)C[C@@H]1C (stereo partly drawn) [#B271, (2E)-4-amino-N-[(2R,3R,5S,6S)-6-{(2E,4E)-5-[(3S,5S,7S)-7-(2-amino-2-oxoethyl)-1,6-dioxaspiro[2.5]oct-5-yl]-3-methylpenta-2,4-dien-1-yl}-2,5-dimethyltetrahydro-2H-pyran-3-yl]pent-2-enamide]	> 100 nM		> 100 nM			
CC(/C=C/[C@@H]1C[C@]2(CO2)C[C@@H](CC(N)=O)O1)=C\C[C@@H]1O[C@H](C)[C@H](NC(=O)/C=C\C(C)N)C[C@@H]1C (stereo partly drawn) [#B272, (2Z)-4-amino-N-[(2R,3R,5S,6S)-6-{(2E,4E)-5-[(3S,5S,7S)-7-(2-amino-2-oxoethyl)-1,6-dioxaspiro[2.5]oct-5-yl]-3-methylpenta-2,4-dien-1-yl}-2,5-dimethyltetrahydro-2H-pyran-3-yl]pent-2-enamide]				> 100 nM		> 100 nM
CC(/C=C/[C@@H]1C[C@]2(CO2)C[C@@H](CC(N)=O)O1)=C\C[C@@H]1O[C@H](C)[C@H](NC(=O)/C=C/C(C)N)C[C@@H]1C (stereo partly drawn) [#B273, (2E)-4-amino-N-[(2R,3R,5S,6S)-6-{(2E,4E)-5-[(3S,5S,7S)-7-(2-amino-2-oxoethyl)-1,6-dioxaspiro[2.5]oct-5-yl]-3-methylpenta-2,4-dien-1-yl}-2,5-dimethyltetrahydro-2H-pyran-3-yl]pent-2-enamide]	600 nM		> 1000 nM			
CCCNC(=O)C[C@]1(O)C[C@@]2(CO2)[C@H](O)[C@@H](/C=C/C(C)=C/C[C@@H]2O[C@H](C)[C@H](NC(=O)/C=C\[C@H](C)OC(C)=O)C[C@@H]2C)O1 [#B275, (2S,3Z)-5-({(2R,3R,5S,6S)-6-[(2E,4E)-5-{(3R,4R,5R,7S)-4,7-dihydroxy-7-[2-oxo-2-(propylamino)ethyl]-1,6-dioxaspiro[2.5]oct-5-yl}-3-methylpenta-2,4-dien-1-yl]-2,5-dimethyltetrahydro-2H-pyran-3-yl}amino)-5-oxopent-3-en-2-yl acetate]				5.33 nM		22.2 nM
COC(=O)C[C@@H]1C[C@@](O)(CCl)[C@H](O)[C@@H](/C=C/C(C)=C/C[C@@H]2O[C@H](C)[C@H](NC(=O)/C=C\[C@H](C)OC(C)=O)C[C@@H]2C)O1 [#B284, (1S,5R)-5-{(1E,3E)-5-[(2S,3S,5R,6R)-5-{[(2Z,4S)-4-(acetyloxy)pent-2-enoyl]amino}-3,6-dimethyltetrahydro-2H-pyran-2-yl]-3-methylpenta-1,3-dien-1-yl}-1,5-anhydro-3-C-(chloromethyl)-2-deoxy-1-(2-methoxy-2-oxoethyl)-D-erythro-pentitol]				1.3 nM		2.03 nM
CCCNC(=O)C[C@@H]1C[C@@](O)(CCl)C[C@@H](/C=C/C(C)=C/C[C@@H]2O[C@H](C)[C@H](NC(=O)/C=C\[C@H](C)OC(C)=O)C[C@@H]2C)O1 [#B285, (2S,3Z)-5-({(2R,3R,5S,6S)-6-[(2E,4E)-5-{(2S,4S,6S)-4-(chloromethyl)-4-hydroxy-6-[2-oxo-2-(propylamino)ethyl]tetrahydro-2H-pyran-2-yl}-3-methylpenta-2,4-dien-1-yl]-2,5-dimethyltetrahydro-2H-pyran-3-yl}amino)-5-oxopent-3-en-2-yl acetate]				7.61 nM		11.7 nM
CCCNC(=O)C[C@@H]1C[C@@](O)(CCl)[C@H](O)[C@@H](/C=C/C(C)=C/C[C@@H]2O[C@H](C)[C@H](NC(=O)/C=C\[C@H](C)OC(C)=O)C[C@@H]2C)O1 [#B286, (1S,5R)-5-{(1E,3E)-5-[(2S,3S,5R,6R)-5-{[(2Z,4S)-4-(acetyloxy)pent-2-enoyl]amino}-3,6-dimethyltetrahydro-2H-pyran-2-yl]-3-methylpenta-1,3-dien-1-yl}-1,5-anhydro-3-C-(chloromethyl)-2-deoxy-1-[2-oxo-2-(propylamino)ethyl]-D-erythro-pentitol]				0.387 nM		1.11 nM
